Assay results reported in ChEMBL document CHEMBL1201862, “PubChem BioAssay data set” (2004).
Active and inactive are the calls of the source.

Key:
[1] = target: SUMO-activating enzyme (Homo sapiens, UniProt Q9UBT2); test: SUMOylation inhibitor hit validation, confirmation, SUMOylation inhibitor project, biochemical, AlphaScreen (AID 2018); type: functional
[2] = target: Cytochrome P450 3A4 (Homo sapiens, UniProt P08684); settings: Potency;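 further: confirmatory qHTS run detecting inhibitors and substrates of CYP3A4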
Chain of Cytochrome P450 3A4 (P08684 whole entry): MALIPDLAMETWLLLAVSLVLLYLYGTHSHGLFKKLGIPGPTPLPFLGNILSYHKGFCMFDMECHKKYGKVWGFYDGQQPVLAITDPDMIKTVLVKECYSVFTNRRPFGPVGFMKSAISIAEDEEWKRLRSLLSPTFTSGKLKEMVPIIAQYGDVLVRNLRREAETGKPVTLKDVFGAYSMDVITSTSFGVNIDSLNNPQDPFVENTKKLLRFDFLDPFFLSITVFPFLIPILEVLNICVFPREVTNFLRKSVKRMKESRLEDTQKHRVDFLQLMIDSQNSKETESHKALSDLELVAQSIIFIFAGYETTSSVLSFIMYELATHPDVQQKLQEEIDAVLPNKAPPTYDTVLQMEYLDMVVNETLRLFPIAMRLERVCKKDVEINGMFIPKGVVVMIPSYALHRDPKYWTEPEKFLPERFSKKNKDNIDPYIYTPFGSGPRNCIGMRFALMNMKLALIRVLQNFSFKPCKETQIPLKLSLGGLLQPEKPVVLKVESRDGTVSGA

[3] = target: Cytochrome P450 2C9 (Homo sapiens, UniProt P11712); settings: Potency
Chain of Cytochrome P450 2C9 (P11712 whole entry): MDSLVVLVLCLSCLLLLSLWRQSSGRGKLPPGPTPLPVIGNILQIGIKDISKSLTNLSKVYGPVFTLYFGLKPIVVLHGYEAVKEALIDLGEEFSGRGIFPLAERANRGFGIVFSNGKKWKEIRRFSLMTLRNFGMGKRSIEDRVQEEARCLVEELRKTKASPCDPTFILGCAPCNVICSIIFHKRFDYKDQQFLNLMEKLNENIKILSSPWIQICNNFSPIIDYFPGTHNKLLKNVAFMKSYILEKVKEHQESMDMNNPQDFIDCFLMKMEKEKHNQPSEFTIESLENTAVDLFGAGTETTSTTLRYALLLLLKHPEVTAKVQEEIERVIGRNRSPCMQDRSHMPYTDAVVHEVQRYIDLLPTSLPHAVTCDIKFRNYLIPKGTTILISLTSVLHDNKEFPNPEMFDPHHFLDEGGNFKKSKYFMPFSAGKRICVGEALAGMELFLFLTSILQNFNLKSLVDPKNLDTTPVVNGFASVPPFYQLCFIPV

[4] = target: Estrogen receptor beta (Homo sapiens, UniProt Q92731);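 further: recombinant ER-beta bound to coactivator SRC1 peptide in presence of estradiol agonist; inhibitors block coactivator peptide binding and lower the FRET signal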
[5] = target: T1, Estrogen receptor (Homo sapiens, UniProt P03372);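 further: potency for inhibiting coactivator peptide recruitment to the receptor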
T1 sequence (P03372 whole entry): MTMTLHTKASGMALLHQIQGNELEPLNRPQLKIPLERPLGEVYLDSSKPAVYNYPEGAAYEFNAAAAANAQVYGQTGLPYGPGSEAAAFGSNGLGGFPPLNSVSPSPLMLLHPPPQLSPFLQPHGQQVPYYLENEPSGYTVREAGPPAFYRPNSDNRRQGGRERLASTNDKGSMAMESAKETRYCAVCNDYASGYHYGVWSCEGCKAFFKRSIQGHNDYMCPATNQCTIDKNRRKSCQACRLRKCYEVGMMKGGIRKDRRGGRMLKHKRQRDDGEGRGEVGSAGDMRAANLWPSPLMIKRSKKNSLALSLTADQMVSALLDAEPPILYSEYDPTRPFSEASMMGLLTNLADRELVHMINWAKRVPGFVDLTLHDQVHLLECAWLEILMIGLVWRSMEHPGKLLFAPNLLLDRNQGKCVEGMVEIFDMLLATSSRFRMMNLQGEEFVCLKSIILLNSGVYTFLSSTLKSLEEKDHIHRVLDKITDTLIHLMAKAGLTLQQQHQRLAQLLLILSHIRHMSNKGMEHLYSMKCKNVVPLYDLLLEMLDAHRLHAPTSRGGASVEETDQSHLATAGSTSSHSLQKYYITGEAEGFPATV

[6] = target: Peroxisome proliferator-activated receptor gamma/Nuclear receptor coactivator 3 (Homo sapiens, UniProt P37231); type: functional;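 further: agonist potency for raising coactivator recruitment to the receptor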
[7] = target: Cytochrome P450 2D6 (Homo sapiens, UniProt P10635);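 further: CYP2D6 member of a cytochrome P450 panel assay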
[8] = target: Peroxisome proliferator-activated receptor gamma/Nuclear receptor coactivator 1 (Homo sapiens, UniProt P37231); type: functional;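 further: agonist potency as compounds enhance coactivator SRC-1 recruitment to PPARgamma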
Chain of Peroxisome proliferator-activated receptor gamma/Nuclear receptor coactivator 1 (P37231 whole entry): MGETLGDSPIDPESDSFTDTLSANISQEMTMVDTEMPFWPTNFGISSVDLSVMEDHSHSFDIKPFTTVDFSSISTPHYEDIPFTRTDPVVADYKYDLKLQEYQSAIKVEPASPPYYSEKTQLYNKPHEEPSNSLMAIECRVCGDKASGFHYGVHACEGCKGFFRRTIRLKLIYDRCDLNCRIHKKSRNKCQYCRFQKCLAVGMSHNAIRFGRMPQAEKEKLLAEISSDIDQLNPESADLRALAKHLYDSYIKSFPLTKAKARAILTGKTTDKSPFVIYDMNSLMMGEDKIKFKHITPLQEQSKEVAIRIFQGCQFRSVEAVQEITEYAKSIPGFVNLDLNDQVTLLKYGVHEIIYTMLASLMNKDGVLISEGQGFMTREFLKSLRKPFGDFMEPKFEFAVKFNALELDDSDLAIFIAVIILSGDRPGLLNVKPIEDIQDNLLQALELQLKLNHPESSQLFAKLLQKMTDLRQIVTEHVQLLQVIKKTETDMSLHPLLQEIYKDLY
Chain of Peroxisome proliferator-activated receptor gamma/Nuclear receptor coactivator 1 (Q15788 whole entry, further chain): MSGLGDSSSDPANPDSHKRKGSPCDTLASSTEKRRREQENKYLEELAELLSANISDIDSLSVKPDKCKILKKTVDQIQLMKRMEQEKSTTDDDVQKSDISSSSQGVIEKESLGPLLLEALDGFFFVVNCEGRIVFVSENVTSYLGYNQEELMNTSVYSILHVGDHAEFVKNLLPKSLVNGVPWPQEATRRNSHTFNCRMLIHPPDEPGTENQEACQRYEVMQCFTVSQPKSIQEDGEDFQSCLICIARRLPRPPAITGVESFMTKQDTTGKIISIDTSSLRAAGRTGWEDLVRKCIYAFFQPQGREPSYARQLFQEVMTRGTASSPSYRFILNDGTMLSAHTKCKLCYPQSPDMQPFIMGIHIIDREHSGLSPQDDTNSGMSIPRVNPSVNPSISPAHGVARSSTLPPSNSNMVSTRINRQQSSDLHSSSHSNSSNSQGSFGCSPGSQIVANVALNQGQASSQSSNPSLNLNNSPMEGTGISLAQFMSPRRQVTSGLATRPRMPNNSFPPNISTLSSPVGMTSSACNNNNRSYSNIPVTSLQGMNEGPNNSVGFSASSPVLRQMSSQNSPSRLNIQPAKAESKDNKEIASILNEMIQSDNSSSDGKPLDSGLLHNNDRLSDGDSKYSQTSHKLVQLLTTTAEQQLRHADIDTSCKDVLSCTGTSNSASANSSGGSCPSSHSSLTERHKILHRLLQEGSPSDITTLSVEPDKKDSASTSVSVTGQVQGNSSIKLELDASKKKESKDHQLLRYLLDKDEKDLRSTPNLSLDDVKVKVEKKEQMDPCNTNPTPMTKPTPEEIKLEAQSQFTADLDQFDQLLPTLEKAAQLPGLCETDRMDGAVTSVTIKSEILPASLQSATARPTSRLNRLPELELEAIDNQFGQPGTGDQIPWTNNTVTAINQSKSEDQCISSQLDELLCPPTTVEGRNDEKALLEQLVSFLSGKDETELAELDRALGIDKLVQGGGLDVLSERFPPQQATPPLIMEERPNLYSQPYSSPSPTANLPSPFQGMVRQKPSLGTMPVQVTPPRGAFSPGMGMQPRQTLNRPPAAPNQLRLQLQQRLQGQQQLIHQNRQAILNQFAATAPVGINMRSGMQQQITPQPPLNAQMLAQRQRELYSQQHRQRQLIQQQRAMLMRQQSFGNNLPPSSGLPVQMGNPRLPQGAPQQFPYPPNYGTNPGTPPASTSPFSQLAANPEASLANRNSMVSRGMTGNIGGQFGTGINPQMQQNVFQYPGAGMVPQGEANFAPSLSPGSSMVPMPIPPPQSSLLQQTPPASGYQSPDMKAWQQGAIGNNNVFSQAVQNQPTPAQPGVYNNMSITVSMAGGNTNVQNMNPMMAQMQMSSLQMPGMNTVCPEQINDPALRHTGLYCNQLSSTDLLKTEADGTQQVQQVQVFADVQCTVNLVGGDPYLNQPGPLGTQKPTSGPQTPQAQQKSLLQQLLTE

[9] = target: Peroxisome proliferator-activated receptor gamma/Nuclear receptor coactivator 2 (Homo sapiens, UniProt P37231); type: functional;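 further: agonist potency for raising coactivator recruitment to the receptor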
Chain of Peroxisome proliferator-activated receptor gamma/Nuclear receptor coactivator 2 (P37231 whole entry): as the sequence (P37231 whole entry) above
Chain of Peroxisome proliferator-activated receptor gamma/Nuclear receptor coactivator 2 (Q15596 whole entry, further chain): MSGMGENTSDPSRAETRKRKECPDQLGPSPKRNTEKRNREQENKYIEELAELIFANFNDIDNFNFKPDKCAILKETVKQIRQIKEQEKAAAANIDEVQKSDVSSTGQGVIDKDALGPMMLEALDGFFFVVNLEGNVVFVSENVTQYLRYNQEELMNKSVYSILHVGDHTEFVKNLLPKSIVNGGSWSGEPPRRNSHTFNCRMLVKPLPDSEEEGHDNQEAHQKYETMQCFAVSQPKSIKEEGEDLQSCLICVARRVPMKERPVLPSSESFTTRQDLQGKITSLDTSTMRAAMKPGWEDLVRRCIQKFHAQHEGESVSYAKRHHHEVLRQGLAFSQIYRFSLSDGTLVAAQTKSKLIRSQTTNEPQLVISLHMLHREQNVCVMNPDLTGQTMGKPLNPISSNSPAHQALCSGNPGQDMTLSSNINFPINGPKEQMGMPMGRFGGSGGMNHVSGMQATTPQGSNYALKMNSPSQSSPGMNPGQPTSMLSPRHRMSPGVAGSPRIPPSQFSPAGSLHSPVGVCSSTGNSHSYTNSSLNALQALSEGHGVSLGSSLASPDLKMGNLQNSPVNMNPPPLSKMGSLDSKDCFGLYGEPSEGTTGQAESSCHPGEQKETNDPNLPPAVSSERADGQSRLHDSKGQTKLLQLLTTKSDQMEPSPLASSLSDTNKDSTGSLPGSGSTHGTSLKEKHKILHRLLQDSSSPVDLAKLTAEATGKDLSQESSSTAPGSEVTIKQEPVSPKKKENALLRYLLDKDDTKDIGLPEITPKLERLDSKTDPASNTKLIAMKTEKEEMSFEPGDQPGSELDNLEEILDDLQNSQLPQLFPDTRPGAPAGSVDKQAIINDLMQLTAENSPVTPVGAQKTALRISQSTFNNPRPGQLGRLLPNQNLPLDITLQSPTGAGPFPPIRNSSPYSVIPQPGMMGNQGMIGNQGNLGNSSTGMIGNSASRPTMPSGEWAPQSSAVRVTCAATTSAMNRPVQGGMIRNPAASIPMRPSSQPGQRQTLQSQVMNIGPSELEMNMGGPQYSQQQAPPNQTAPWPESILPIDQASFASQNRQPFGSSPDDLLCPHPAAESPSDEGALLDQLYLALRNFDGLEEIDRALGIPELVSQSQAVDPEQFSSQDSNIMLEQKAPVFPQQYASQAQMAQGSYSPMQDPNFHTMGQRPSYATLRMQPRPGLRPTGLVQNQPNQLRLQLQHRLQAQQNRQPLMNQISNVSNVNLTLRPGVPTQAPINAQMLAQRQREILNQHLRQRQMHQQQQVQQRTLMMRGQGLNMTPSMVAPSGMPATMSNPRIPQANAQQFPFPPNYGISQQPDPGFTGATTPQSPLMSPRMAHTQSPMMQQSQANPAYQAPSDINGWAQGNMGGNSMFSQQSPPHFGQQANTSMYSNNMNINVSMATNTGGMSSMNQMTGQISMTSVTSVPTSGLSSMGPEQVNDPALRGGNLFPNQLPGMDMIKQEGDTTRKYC

[10] = system: BJ; test: cytotoxicity toward BJ-TERT fibroblasts, dose response, cell-based, RAS-independent, luminescence (AID 1933); type: functional; settings: Homo sapiens
[11] = target: T2, Oxysterols receptor LXR-beta (Homo sapiens, UniProt P55055); type: functional, cell-based;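 further: agonist activity at LXR measured by a cell-based luminescence readout across a dose range, run as a counterscreen for daf-12 agonists; potency for activation of Gal4-LXR reporter so compounds are agonists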
T2 sequence (P55055 whole entry): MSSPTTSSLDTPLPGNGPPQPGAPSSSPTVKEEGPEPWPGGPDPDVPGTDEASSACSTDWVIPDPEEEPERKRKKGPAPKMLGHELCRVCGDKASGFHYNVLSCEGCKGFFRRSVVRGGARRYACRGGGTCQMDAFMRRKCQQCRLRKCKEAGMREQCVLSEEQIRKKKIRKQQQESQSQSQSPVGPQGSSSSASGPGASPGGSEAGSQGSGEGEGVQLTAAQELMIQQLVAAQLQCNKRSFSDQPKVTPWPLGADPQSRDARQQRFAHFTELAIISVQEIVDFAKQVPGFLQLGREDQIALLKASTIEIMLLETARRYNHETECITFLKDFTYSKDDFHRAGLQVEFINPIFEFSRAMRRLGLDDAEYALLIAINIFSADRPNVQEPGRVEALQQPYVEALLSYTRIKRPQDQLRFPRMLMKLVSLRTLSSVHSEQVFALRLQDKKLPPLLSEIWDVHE

[12] = HEK293 cell cytotoxicity, dose response, cytotoxicity control, plate reader, cherry-picked samples (AID 743446); type: functional, cell-based
[13] = system: BJ; test: cytotoxicity toward Ras-transformed BJeLR fibroblasts, dose response, cell-based, alamar blue fluorescence, cherrypicked samples (AID 2631); type: functional; settings: Homo sapiens;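 further: confirmatory dose-response assay in RAS-dependent BJ fibroblasts engineered with TERT, LT and ST, with cytotoxicity read by fluorescence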
[14] = Luminescence Cell-Based Dose Confirmation HTS to Identify Inhibitors of Platelet Dense Granule Release. [Related pubchem assays: 1663 (Primary HTS), 1678 (Summary of Project)]; type: functional
[15] = system: BJ; test: cytotoxicity toward BJ-TERT-LT-ST fibroblasts, dose response, cell-based, RAS-independent, luminescence (AID 1935); type: functional; settings: Homo sapiens;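 further: BJ fibroblasts immortalized with TERT plus LT and ST oncogenes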
[16] = system: INS1; test: beta cell apoptosis inhibitors, cytokine rescue, dose response, luminescence, retest (AID 449756); type: functional, cell-based; settings: Rattus norvegicus;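 further: cell death triggered by IL-1 beta plus TNF-alpha plus IFN-gamma mixture; protective hits raise ATP signal compared with cytokine alone wells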
[17] = cytotoxicity toward DRD oncogenic fibroblasts, dose response, cell-based, non-viral oncogenic, luminescence (AID 1934); type: functional; settings: Homo sapiens
[18] = HepG2 cell cytotoxicity, dose response, cytotoxicity control, plate reader, cherry-pick, antagonist series (AID 743416); type: functional, cell-based
[19] = LGR2 antagonists, dose response, cell-based, HEK293, CRE-luciferase reporter, cherry pick, set 2 (AID 743343); type: functional;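 further: transfected cells were stimulated with diluted bursicon conditioned medium after compound addition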
[20] = target: Luciferin 4-monooxygenase (Photinus pyralis, UniProt P08659); test: firefly luciferase enzyme inhibitors, dose response, biochemical, luminescence (AID 1891)
[21] = A549 cell cytotoxicity, dose response, cytotoxicity control, plate reader, cherry-pick, antagonist series (AID 743412); type: functional, cell-based
[22] = MC4R antagonists, dose response, counter-screen for LGR2 antagonist project, cell-based, plate reader, cherry pick (AID 743444); type: functional;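 further: transfected HEK 293 cells stimulated with alpha-MSH peptide; potency of inhibitors of the alpha-MSH evoked signal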
[23] = target: Heat shock protein HSP 90-alpha (Homo sapiens, UniProt P07900); type: functional, organism-based
[24] = Luminescence Cell-Based Dose Retest to Confirm Inhibitors of Cancer Stem Cells. [Related pubchem assays (depositor defined):AID2717, AID2721]; type: functional; settings: Homo sapiens
[25] = target: Beta-galactosidase (Escherichia coli, UniProt Q8VNN2); test: beta-galactosidase enzyme inhibitors and activators, dose response, artefact control for CCR6 antagonist project, biochemical, E. coli enzyme, set 3 (AID 504712); type: functional
[26] = HepG2 cell cytotoxicity, dose response, cytotoxicity control, ATP luminescence, cherry-pick, set 6 (AID 1053125); type: functional, cell-based
[27] = target: T2, Oxysterols receptor LXR-beta; test: LXR agonists, Gal4 luciferase reporter, dose response, counter-screen for ssDAF-12 agonist project, cell-based, luminescence, HEK293, S. stercoralis campaign (AID 720737); type: functional; settings: read-out: IC50 (the source's name)
[28] = Luminescence-based cell-based high throughput dose response assay to identify activators of the DAF-12 from the parasite S. stercoralis (ssDAF-12).; type: functional
[29] = P. falciparum Dd2 growth inhibitors, dose response, SYBR Green, cherry-picked samples (AID 1159567); type: functional, cell-based
[30] = HepG2 cell cytotoxicity, dose response, cytotoxicity control, cherry-picked samples (AID 1159577); type: functional, cell-based

COc1cccc(NC(=O)Nc2nnc(-c3ccccc3SCc3ccccc3)s2)c1
IC50 [1]: 56.6 µM (active)

CCCCCCCC1=CC2=CC(=O)C(C)(OC(C)=O)C(=O)C2=CN1CCc1ccccc1 (configuration not stated)
AC50 [2]: 3.98 µM (inconclusive) | AC50 [3]: 6.31 µM (inconclusive)

O=C(c1cc(-c2ccco2)on1)N1CCCc2ccccc21
IC50 [4]: > 50 µM (not active) | IC50 [5]: > 50 µM (not active)

O=C(CSc1nnc2c3ccccc3c3ccccc3c2n1)Nc1ccccc1
EC50 [6]: 39.1 µM (not active) | AC50 [7]: 7.94 µM (inconclusive) | EC50 [8]: 31.7 µM (not active) | EC50 [9]: 28.6 µM (not active)

Clc1ccccc1Nc1nnc(-c2ccncc2)s1
EC50 [10]: 7.07 µM (active) | EC50 [11]: > 67.5 µM (inactive) | AC50 [12]: 4.19 µM (active) | EC50 [13]: > 133 µM (inactive) | EC50 [14]: 2.56 µM (active) | EC50 [15]: > 150 µM (inconclusive) | AC50 [16]: 4.99 µM (active) | EC50 [17]: 5.43 µM (active) | AC50 [18]: 8.92 µM (active) | AC50 [19]: 5.65 µM (active) | EC50 [20]: 0.799 µM (active) | AC50 [21]: 4.79 µM (active) | AC50 [22]: 8 µM (active)

COc1ccc(NC(=O)COC(=O)c2cccc(S(=O)(=O)N(C)C)c2)cc1
EC50 [6]: > 79.4 µM (not active) | EC50 [8]: > 79.4 µM (not active) | EC50 [9]: > 79.4 µM (not active)

O=C1C=CC(=O)N1c1ccc(OC(F)F)cc1
AC50 [23]: 1.65 µM (active) | AC50 [24]: 3.12 µM (active) | IC50 [25]: > 66.6 µM (inactive)

CCOc1ccc(-n2c(SCC(=O)Nc3nccs3)nnc2-c2ccoc2C)cc1
AC50 [26]: > 52 µM (inactive)

Cc1c(C(=O)Nc2nccs2)oc2ccccc12
EC50 [11]: > 67.6 µM (inactive) | EC50 [27]: > 67.6 µM (inactive) | IC50 [28]: > 67.6 µM (inactive)

COc1ccc(S(=O)(=O)N2CC[C@@H]3[C@@H](CO)Nc4ccc(-c5ccc(C#N)cc5)cc4[C@@H]32)cc1
AC50 [29]: 6.28 µM (active) | AC50 [30]: 3.16 µM (active)

CCCC#Cc1ccc([C@H]2[C@@H](CO)N3CCCCN(C(=O)NC4CCCC4)C[C@H]23)cc1
AC50 [29]: 5.27 µM (active) | AC50 [30]: 12.6 µM (active)

CC(C)(C)c1cc(O)ccc1O [E319]
AC50 [3]: 7.94 µM (inconclusive)
